According to PMC9928118, “Funneling modulatory peptide design with generative models: Discovery and characterization of disruptors of calcineurin protein-protein interactions” (PLOS Computational Biology, 2023):

Test system: GST-tagged Cn
Test: PEPperPRINT peptide microarray binding assay with GST-tagged Cn
How it was run: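 Qualitative binding: peptides printed on a PEPperPRINT microarray were incubated overnight at 4 °C with 1 mg/ml GST-tagged Cn, then detected with Alexa-Fluor 647 anti-GST antibody. Log fluorescence was baseline-corrected, averaged over duplicate spots, Z-normalized and averaged across five repeats.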

[1] = GST-tagged Cn, max over the spots named in Location on chip
[2] = GST-tagged Cn, mean over the spots named in Location on chip
[3] = GST-tagged Cn, max over the chip spots listed under Location on chip
[4] = GST-tagged Cn, mean over the chip spots listed under Location on chip
[5] = max over the spots listed under Location on chip
[6] = mean over the spots listed under Location on chip
[7] = GST-tagged Cn, max over the spots on the chip (two locations)
[8] = GST-tagged Cn, mean over the spots on the chip (two locations)
[9] = max over the chip locations listed for the peptide (two spots)
[10] = mean over the chip locations listed for the peptide (two spots)
[11] = GST-tagged Cn, max over the chip locations
[12] = GST-tagged Cn, mean over the chip locations

HVSSSPRIAITPTQHR [SeqRBMlowT_8885]
Chip Fluorescence (max) [1]: 1.646 | Chip Fluorescence (mean) [2]: -0.634

SAASFRIKQIEFMVSA [Seqshuffled_4815]
Chip Fluorescence (max) [3]: 0.7621 | Chip Fluorescence (mean) [4]: -0.8277

TFWTNPQYVITLEDPD [SeqRBMlowT_239]
Chip Fluorescence (max) [5]: 3.22 | Chip Fluorescence (mean) [6]: 0.7373

TFWINPQFKVRLDEID [SeqCAPN11_Boiga_irregularis]
Chip Fluorescence (max) [1]: 1.765 | Chip Fluorescence (mean) [2]: 0.8018

KAYINPFMQFIDGGRR [SeqRBMlowT_549]
Chip Fluorescence (max) [5]: 3.298 | Chip Fluorescence (mean) [6]: 1.4015

PSLYENALGIESFTLS [SeqRBMlowT_6913]
Chip Fluorescence (max) [5]: 2.963 | Chip Fluorescence (mean) [6]: 0.4149

RTYMNPFASFLDHSHR [SeqSFB3_Pseudocercospora_musae]
Chip Fluorescence (max) [7]: 1.14 | Chip Fluorescence (mean) [8]: -0.1201

KSRALSKVVINEPLTI [SeqTRESK_Leptosomus_discolor]
Chip Fluorescence (max) [7]: 1.0328 | Chip Fluorescence (mean) [8]: -0.6623

ASALSPRIEITPSHEL [SeqNFATC1_Alligator_mississippiensis]
Chip Fluorescence (max) [5]: 3.085 | Chip Fluorescence (mean) [6]: 0.192

LSLKIPEISIQDMTAQ [SeqFLNA_Macaca_mulatta]
Chip Fluorescence (max) [7]: 1.124 | Chip Fluorescence (mean) [8]: -0.12

ASEAAPTINIDFAPNP [SeqRBMlowT_1832]
Chip Fluorescence (max) [9]: 4.3558 | Chip Fluorescence (mean) [10]: -0.1882

QGLYENVLGMEAFSVS [SeqRBM_7629]
Chip Fluorescence (max) [3]: 0.8552 | Chip Fluorescence (mean) [4]: 0.1691

SFWANPQFIVSLEEPD [SeqRBMlowT_610]
Chip Fluorescence (max) [3]: 0.3721 | Chip Fluorescence (mean) [4]: -0.5491

TFWTNPQFRIKLEEVD [SeqRBMlowT_2987]
Chip Fluorescence (max) [9]: 3.672 | Chip Fluorescence (mean) [10]: 2.469

VVMHKMPKTGGWWHCP [Seqrandom_9963]
Chip Fluorescence (max) [5]: 2.722 | Chip Fluorescence (mean) [6]: 1.008

SSRIQSKIVVNEPKQI [SeqRBM_7418]
Chip Fluorescence (max) [11]: -0.3136 | Chip Fluorescence (mean) [12]: -1.152

MAGPHPKIVITGPHEE [PKIVIT-containing synthetic peptide]
Chip Fluorescence (max) [5]: 2.82 | Chip Fluorescence (mean) [6]: 1.158

PSDDQPGIIVHPAEED [SeqRBMlowT_1217]
Chip Fluorescence (max) [5]: 2.878 | Chip Fluorescence (mean) [6]: -0.2496

QSRSCSHPNRSPERVT [SeqRBM_5791]
Chip Fluorescence (max) [11]: -0.7515 | Chip Fluorescence (mean) [12]: -1.165

TFWTNPQYRIKLTEPD [SeqRBMlowT_234]
Chip Fluorescence (max) [3]: 0.5195 | Chip Fluorescence (mean) [4]: -0.7647

KAYMCPFMQFQDGGRR [SeqRBMlowT_520]
Chip Fluorescence (max) [3]: 0.6726 | Chip Fluorescence (mean) [4]: 0.4462

TGTLCKSGMLVSTRMS [SeqRBM_1323]
Chip Fluorescence (max) [3]: 0.8817 | Chip Fluorescence (mean) [4]: -0.07521

GVHSCPALSVDRPQNQ [Seqshuffled_9565]
Chip Fluorescence (max) [7]: 1.31 | Chip Fluorescence (mean) [8]: -0.01046

KSKLIPKLSIQSPVHH [SeqRBMlowT_830]
Chip Fluorescence (max) [11]: -0.5565 | Chip Fluorescence (mean) [12]: -1.425

STSSLPTFSFSSPPST [SeqRBMlowT_3479]
Chip Fluorescence (max) [11]: -1.235 | Chip Fluorescence (mean) [12]: -1.867

VFAQEDYFLFPVILKE [Seqrandom_9943]
Chip Fluorescence (max) [5]: 3.279 | Chip Fluorescence (mean) [6]: -0.004599

ATDTTPSVVVHVCESD [SeqRCN1_Macaca_mulatta]
Chip Fluorescence (max) [7]: 1.045 | Chip Fluorescence (mean) [8]: 0.2093

TFHTNPQYRVNIEDQD [SeqRBM_8967]
Chip Fluorescence (max) [1]: 1.436 | Chip Fluorescence (mean) [2]: 0.08694

TFHTNPQYRIKLEEPD [SeqRBMlowT_4495]
Chip Fluorescence (max) [9]: 3.4958 | Chip Fluorescence (mean) [10]: 1.049

VRFTLPEKQVHSSAPS [SeqRBM_2315]
Chip Fluorescence (max) [3]: 0.7129 | Chip Fluorescence (mean) [4]: -0.8346

LGRMSPQSTTQALPST [Seqshuffled_9332]
Chip Fluorescence (max) [1]: 1.718 | Chip Fluorescence (mean) [2]: -0.1183

QRFFCVRYDVNPCINW [Seqrandom_9944]
Chip Fluorescence (max) [9]: 3.709 | Chip Fluorescence (mean) [10]: 0.2678

VSLKIPGSSAIDLTAS [SeqFLNA_Trichinella_nativa]
Chip Fluorescence (max) [11]: -0.0417 | Chip Fluorescence (mean) [12]: -0.9527

SSMAPPAINIDFAPTN [SeqRBMlowT_1806]
Chip Fluorescence (max) [1]: 1.404 | Chip Fluorescence (mean) [2]: 0.3806

TFWTNPQFKVKLEDPD [SeqRBMlowT_4293]
Chip Fluorescence (max) [3]: 0.7466 | Chip Fluorescence (mean) [4]: -0.6386

YRDSWVTACQKIQSKI [Seqrandom_9988]
Chip Fluorescence (max) [5]: 3.109 | Chip Fluorescence (mean) [6]: 0.4888

TFWTNPQYRITLEEED [SeqRBMlowT_1109]
Chip Fluorescence (max) [5]: 3.384 | Chip Fluorescence (mean) [6]: 0.265

RAMRILKCCPHPAAWN [Seqrandom_9981]
Chip Fluorescence (max) [7]: 1.034 | Chip Fluorescence (mean) [8]: 0.3693
